In ChEMBL document CHEMBL5620401, “Design, synthesis, and biological evaluation of novel spirocyclic compounds as potential anti-glioblastoma agents” (Eur J Med Chem, 2023):
The source made the active and inactive calls. The rule behind the calls is not given here.

How the values were obtained:
[1] = system: U-87 MG; assay: Antiproliferative activity against human U87 cells assessed as cell viability measured after 72 hrs by MTT assay; type: functional, cell-based, U-87MG ATCC
[2] = system: U-251; assay: Antiproliferative activity against human U-251 cells assessed as cell viability measured after 72 hrs by MTT assay; type: functional, cell-based; details: for IC50: U-251, 72 h
[3] = system: U-87 MG; assay: Antiproliferative activity against human U87 cells assessed as inhibition rate at 20 uM measured after 72 hrs by MTT assay relative to control; type: functional, U-87MG ATCC
[4] = Permeability coefficient of compound by lipid-PAMPA assay; type: ADME; details: for Papp: read-out: Peff
[5] = system: U-251; assay: Antiproliferative activity against human U-251 cells assessed as inhibition rate at 20 uM measured after 72 hrs by MTT assay relative to control; type: functional

SMILES	IC50 [1] [µM]	IC50 [2] [µM]	other results
COc1cc(/C=C/C(=O)c2ccc(C(=O)N3CCN(Cc4ccccc4)C34COC4)cc2)cc(OC)c1OC	3.7	2.2	
COc1cc(C(=O)/C=C/c2cccc(C(=O)N3CCN(Cc4ccccc4)C34COC4)c2)cc(OC)c1OC	2.2	1.1	
COc1ccc(C(=O)/C=C/c2cccc(C(=O)N3CCN(Cc4ccccc4)C34COC4)c2)cc1OC	4.4	1.6	
COc1cc(C(=O)CCc2ccc(C(=O)N3CCN(Cc4ccccc4)C34COC4)cc2)cc(OC)c1OC			Activity [2]: Active
O=C(CBr)N1CCN(Cc2ccccc2)C12COC2	14.6	13.9	inhibition at 20 µM [3]: 74.3%; Papp [4]: 26.9 ×10⁻⁶ cm/s; inhibition at 20 µM [5]: 63.9%
O=C(/C=C/c1ccc(C(=O)N2CCN(Cc3ccccc3)C23COC3)cc1)c1ccccc1	5	3	
O=C(/C=C/c1ccc(C(=O)N2CCN(Cc3ccccc3)C23COC3)cc1)c1ccccn1	5.2	4.2	
COc1ccc(C(=O)/C=C/c2cccc(C(=O)N3CCN(Cc4ccccc4)C34COC4)c2)cc1	2.6	2	
Cn1nnc2c(C(N)=O)ncn2c1=O [TEMOZOLOMIDE]	> 50	> 50	Peff [4]: 0.002 10^-6 cm/s
O=C(/C=C/c1ccc(C(=O)N2CCN(Cc3ccccc3)C23COC3)o1)c1ccncc1	10.5	6	
O=C(/C=C/c1ccncc1)c1ccc(C(=O)N2CCN(Cc3ccccc3)C23COC3)cc1	3	3.3	
COc1cc(C(=O)/C=C/c2ccc(C(=O)N3CCN(Cc4ccccc4)C34COC4)o2)cc(OC)c1OC	14.9	7.6	
O=C(/C=C/c1ccc(C(=O)N2CCN(Cc3ccccc3)C23COC3)cc1)c1ccsc1	8.5	3.6	
COc1ccc(C(=O)/C=C/c2ccc(C(=O)N3CCN(Cc4ccccc4)C34COC4)cc2)cc1	3.2	2.4	
O=C(/C=C/c1ccc(C(=O)N2CCN(Cc3ccccc3)C23COC3)cc1)c1ccncc1	5.3	5.3	
O=C(/C=C/c1ccc(C(=O)N2CCN(Cc3ccccc3)C23COC3)s1)c1ccncc1	6.7	6.6	
O=C(CCl)N1CCN(Cc2ccccc2)C12COC2	11.5	8.6	inhibition at 20 µM [3]: 90.1%; Papp [4]: 23.4 ×10⁻⁶ cm/s; inhibition at 20 µM [5]: 87.7%
